Reference: patent EP0908457B1, “3-(1,2-benzisothiazol- and isoxazol-5-Y1)-2,4(1H,3H)-pyrimidinedione or thione and 3-(1,2-benzisothiazol- and isoxazol-5-y1)-4(3H)-pyrimidinone or thione herbicidal agents” (BASF AKTIENGESELLSCHAFT, priority 1997, dated 1999)

Legend:
[1] = tested on: Sagittaria pygmaea, L.; assay: Preemergence weed control under flooded paddy conditions, SAGPY (Arrowhead (Pygmaea)); assay type: in vivo; details: preemergence, flooded paddy, rated three to four weeks after treatment
[2] = tested on: Oryza sativa, (L.) Tebonnet; assay: Rice tolerance to post-transplant applications under flooded paddy conditions (Example 187), ORYSAT (Rice, Tebonnet); details: rated three to four weeks after treatment
[3] = tested on: Echinochloa oryzoides (Ard.) Fritsch.; assay: Preemergence weed control under flooded paddy conditions, ECHORC (Watergrass (Calif.)); assay type: in vivo; details: preemergence, flooded paddy, rated three to four weeks after treatment
[4] = tested on: Cyperus serotinus, Rottb.; assay: Preemergence weed control under flooded paddy conditions, CYPSE (Flatsedge); assay type: in vivo; details: preemergence, rated three to four weeks after treatment
[5] = tested on: Monochoria vaginalis, Presl.; assay: Preemergence weed control under flooded paddy conditions, MOOVA (Monochoria); assay type: in vivo; details: preemergence, flooded paddy, rated three to four weeks after treatment
[6] = tested on: Cyperus iria; assay: Preemergence weed control under flooded paddy conditions, CYPIR (Rice Flatsedge); assay type: in vivo; details: preemergence, flooded paddy, rated three to four weeks after treatment

Row | SMILES | SAGPY herbicidal effect rating ([1]; Rate 0.5000 kg/ha) | ORYSAT herbicidal effect rating ([2]; Rate 0.5000 kg/ha) | ECHORC herbicidal effect rating ([3]; Rate 0.5000 kg/ha) | CYPSE herbicidal effect rating ([4]; Rate 0.5000 kg/ha) | MOOVA herbicidal effect rating ([5]; Rate 0.5000 kg/ha) | CYPIR herbicidal effect rating ([6]; Rate 0.5000 kg/ha) | SAGPY herbicidal effect rating ([1]; Rate 0.0320 kg/ha) | SAGPY herbicidal effect rating ([1]; Rate 0.0620 kg/ha) | SAGPY herbicidal effect rating ([1]; Rate 0.1250 kg/ha) | SAGPY herbicidal effect rating ([1]; Rate 0.2500 kg/ha) | ORYSAT herbicidal effect rating ([2]; Rate 0.0320 kg/ha) | ORYSAT herbicidal effect rating ([2]; Rate 0.0620 kg/ha) | ORYSAT herbicidal effect rating ([2]; Rate 0.1250 kg/ha) | ORYSAT herbicidal effect rating ([2]; Rate 0.2500 kg/ha) | ECHORC herbicidal effect rating ([3]; Rate 0.0320 kg/ha) | ECHORC herbicidal effect rating ([3]; Rate 0.0620 kg/ha) | ECHORC herbicidal effect rating ([3]; Rate 0.1250 kg/ha) | ECHORC herbicidal effect rating ([3]; Rate 0.2500 kg/ha) | CYPSE herbicidal effect rating ([4]; Rate 0.0320 kg/ha) | CYPSE herbicidal effect rating ([4]; Rate 0.0620 kg/ha) | further results
1 | COC(=O)CS(=O)(=O)Cc1nsc2ccc(-n3c(=O)cc(C(F)(F)F)n(C)c3=O)cc12 [Example 272, Acetic acid, {{{5-[3,6-dihydro-3-methyl-2,6-dioxo-4-(trifluoromethyl)-1(2H)-pyrimidinyl]-1,2-benzisothiazol-3-yl}methyl}sulfonyl}-, methyl ester] | 0.0 | 0.0 | 0.0 | 0.0 | 0.0 | 0.0 |  |  |  |  |  |  |  |  |  |  |  |  |  |  | 
2 | Cn1c(C(F)(F)F)cc(=O)n(-c2ccc3snc(-c4ccc(OCC(=O)OC(C)(C)C)cc4)c3c2)c1=O [Example 273, Acetic acid, {p-{5-[3,6-dihydro-3-methyl-2,6-dioxo-4-(trifluoromethyl)-1(2H)-pyrimidinyl]-1,2-benzisothiazol-3-yl}phenoxy}-, tert-butyl ester] | 0.0 | 3.0 | 9.0 | 9.0 | 9.0 | 4.0 | 0.0 | 0.0 | 0.0 | 6.0 | 0.0 | 2.0 | 3.0 | 4.0 | 3.9 | 5.1 | 6.0 | 9.0 | 0.0 | 0.0 | CYPSE herbicidal effect rating ([4]; Rate 0.2500 kg/ha): 7.0; MOOVA herbicidal effect rating ([5]; Rate 0.0320 kg/ha): 9.0; MOOVA herbicidal effect rating ([5]; Rate 0.0620 kg/ha): 9.0; MOOVA herbicidal effect rating ([5]; Rate 0.1250 kg/ha): 9.0; MOOVA herbicidal effect rating ([5]; Rate 0.2500 kg/ha): 9.0; CYPIR herbicidal effect rating ([6]; Rate 0.0320 kg/ha): 6.0; CYPIR herbicidal effect rating ([6]; Rate 0.0620 kg/ha): 9.0; CYPIR herbicidal effect rating ([6]; Rate 0.1250 kg/ha): 9.0; CYPIR herbicidal effect rating ([6]; Rate 0.2500 kg/ha): 9.0
3 | COC(=O)COc1c(-c2nsc3ccc(-n4c(=O)cc(C(F)(F)F)n(C)c4=O)cc23)ccc(C)c1C [Example 274, Acetic acid, {{6-{5-[3,6-dihydro-3-methyl-2,6-dioxo-4-(trifluoromethyl)-1(2H)-pyrimidinyl]-1,2-benzisothiazol-3-yl}-2,3-xylyl}oxy}-, methyl ester] | 4.0 | 7.0 | 9.0 | 9.0 | 9.0 | 2.0 | 0.0 | 0.0 | 4.0 | 9.0 | 2.0 | 4.0 | 4.0 | 8.0 | 3.3 | 4.1 | 5.9 | 9.0 | 0.0 | 2.0 | CYPSE herbicidal effect rating ([4]; Rate 0.1250 kg/ha): 8.0; CYPSE herbicidal effect rating ([4]; Rate 0.2500 kg/ha): 9.0; MOOVA herbicidal effect rating ([5]; Rate 0.0320 kg/ha): 9.0; MOOVA herbicidal effect rating ([5]; Rate 0.0620 kg/ha): 9.0; MOOVA herbicidal effect rating ([5]; Rate 0.1250 kg/ha): 9.0; MOOVA herbicidal effect rating ([5]; Rate 0.2500 kg/ha): 9.0; CYPIR herbicidal effect rating ([6]; Rate 0.0320 kg/ha): 7.0; CYPIR herbicidal effect rating ([6]; Rate 0.0620 kg/ha): 8.0; CYPIR herbicidal effect rating ([6]; Rate 0.1250 kg/ha): 9.0; CYPIR herbicidal effect rating ([6]; Rate 0.2500 kg/ha): 9.0
4 | COC(=O)C(C)Oc1c(-c2nsc3ccc(-n4c(=O)cc(C(F)(F)F)n(C)c4=O)cc23)ccc(C)c1C (centres unmarked) [Example 275, Propionic acid, 2-{{6-{5-[3,6-dihydro-3-methyl-2,6-dioxo-4-(trifluoromethyl)-1(2H)-pyrimidinyl]-1,2-benzisothiazol-3-yl}-2,3-xylyl}oxy}-, methyl ester] | 0.0 | 5.0 | 7.0 | 0.0 | 9.0 | 0.0 | 0.0 | 0.0 | 3.0 | 9.0 | 0.0 | 0.0 | 3.0 | 4.0 | 3.7 | 3.9 | 4.1 | 9.0 | 9.0 | 9.0 | CYPSE herbicidal effect rating ([4]; Rate 0.1250 kg/ha): 9.0; CYPSE herbicidal effect rating ([4]; Rate 0.2500 kg/ha): 9.0; MOOVA herbicidal effect rating ([5]; Rate 0.0320 kg/ha): 6.0; MOOVA herbicidal effect rating ([5]; Rate 0.0620 kg/ha): 9.0; MOOVA herbicidal effect rating ([5]; Rate 0.1250 kg/ha): 9.0; MOOVA herbicidal effect rating ([5]; Rate 0.2500 kg/ha): 9.0; CYPIR herbicidal effect rating ([6]; Rate 0.0320 kg/ha): 0.0; CYPIR herbicidal effect rating ([6]; Rate 0.0620 kg/ha): 4.0; CYPIR herbicidal effect rating ([6]; Rate 0.1250 kg/ha): 6.0; CYPIR herbicidal effect rating ([6]; Rate 0.2500 kg/ha): 7.0
5 | C=Cc1nsc2ccc(-n3c(=O)cc(C(F)(F)F)n(C)c3=O)cc12 [Example 276, 2,4(1H,3H)-Pyrimidinedione, 1-methyl-6-(trifluoromethyl)-3-(3-vinyl-1,2-benzisothiazol-5-yl)-] | 9.0 | 9.0 | 9.0 | 7.0 | 9.0 | 9.0 | 8.0 | 9.0 | 9.0 | 9.0 | 4.0 | 5.0 | 6.0 | 7.0 | 4.0 | 7.7 | 7.9 | 9.0 | 2.0 | 2.0 | CYPSE herbicidal effect rating ([4]; Rate 0.1250 kg/ha): 8.0; CYPSE herbicidal effect rating ([4]; Rate 0.2500 kg/ha): 7.0; MOOVA herbicidal effect rating ([5]; Rate 0.0320 kg/ha): 9.0; MOOVA herbicidal effect rating ([5]; Rate 0.0620 kg/ha): 9.0; MOOVA herbicidal effect rating ([5]; Rate 0.1250 kg/ha): 9.0; MOOVA herbicidal effect rating ([5]; Rate 0.2500 kg/ha): 9.0; CYPIR herbicidal effect rating ([6]; Rate 0.0320 kg/ha): 8.0; CYPIR herbicidal effect rating ([6]; Rate 0.0620 kg/ha): 9.0; CYPIR herbicidal effect rating ([6]; Rate 0.1250 kg/ha): 9.0; CYPIR herbicidal effect rating ([6]; Rate 0.2500 kg/ha): 9.0
